Data on ten compounds can be found in patent US20030134859A1 (SANKYO COMPANY, LIMITED, priority 2000, published 2003).

Like-named read-outs stand apart in the source and are kept apart here.

Type in all cases: cell-based
In experiment [1] the test system is Mouse preadipocyte strain 3T3-L1. Briefly: Inhibition of differentiation as an indication of acetic acid uptake. The settings on record: control (0.01% dimethylsulfoxide) = 100%; for activity at 0.1 µM: Mus musculus, read-out: Rate of Uptake (%) of [2-14C] acetic acid. In outline:
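Confluent 3T3-L1 cells induced to differentiate for 4 days (insulin, IBMX, dexamethasone, 5% FBS) with test compound at 0.1 μM final or 0.01% DMSO, then 2 days in insulin maintenance medium, at 37 °C, 10% CO2. [2-14C]acetic acid uptake over 1 hr counted by scintillation; expressed as % of DMSO control.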

In the next experiment the test system is Rat white adipocytes. Briefly: Stimulation of differentiation of the adipocytes (Oil Red O). The conditions noted are these: 100 nM test compound, 5 days, Oil Red O ABS550, control = 100%, blank = 0%, Table 7; for activity at 0.1 µM: Rattus norvegicus, Adipocyte, 120 h, read-out: Rate of Differentiation (%). On the procedure: Rat white adipocytes contained in the white adipocyte culture kit, which was purchased from HOKUDO, were used. Mediums for proliferation and for differentiation-inducing, which were contained in the white adipocyte culture kit purchased from HOKUDO, were used.
Immediately after arrival of the purchased cells, all medium for transportation was discarded and replaced with 5 ml of proliferation medium (/25 cm^2-flask) and the cells were cultured for one day. Then, a cell suspension was prepared with proliferation medium so as to be 83,000 cells/mL, and the suspension was plated into a type I 96-well collagen-coated microplate (SUMITOMO BAKELITE CO., ltd.) so as to be 5,000 cells/well (60 μL/well). For the blank, the proliferation medium without the cells was plated into the well (blank well) of each plate.
Further, 1) in the group treated with the test compound, 3 μL/well of a solution in which the test compound (100 μM) was dissolved in DMSO solution and diluted with differentiation-inducing medium by 20 times (final concentration of the test compound: 100 nM, final concentration of DMSO: 0.1% (v/v)) were added to the well where the cells were plated. 2) In the control group, 3 μL/well of DMSO solution that was diluted with differentiation-inducing medium by 20 times (final concentration of DMSO: 0.1% (v/v)) were added to the well where the cells were plated. Further, 3) in the blank group, 3 μL/well of DMSO solution that was diluted with differentiation-inducing medium by 20 times (final concentration: 0.1% (v/v)) were added to the blank well.
After culturing for 5 days, all differentiation-inducing medium was discarded and replaced with 60 μL of 10% (v/v) of formaldehyde solution (for fixation) in each well and the cells were kept stationary for 20 min at room temperature. After this the fixative solution was discarded and replaced with 60 μL of 0.2% (v/v) Triton X (Sigma-Aldrich Japan K. K.) solution in each well and kept stationary for 5 min at the room temperature. Then all Triton X solution was discarded and replaced with 60 μL of 60% (v/v) isopropanol solution containing dissolved Oil Red 0 (Sigma-Aldrich Japan K. K.) so as to be 0.3%, which was adipose tissue staining solution, and the well was left stationary for 10 min at room temperature. After the adipose tissue staining solution was discarded, the well was washed twice with 60 μL of 60% (v/v) isopropanol solution. Then, 100 μL of the DMSO were added to each well and stirred for 5 min at room temperature. The absorbance was measured at 550 nm (ABS550) with a multi-plate reader (LabsSystems), and the stained amount by Oil Red 0 was determined. The measured level at ABS550 in the control group was defined as 100%, while the level at ABS550 in the blank group was defined as 0%. The differentiation rate (%) of the adipocytes treated with the test compound was calculated.

The next experiment has as its target T1, human PPAR γ 2 (Homo sapiens, UniProt P37231).
T1 construct: expressed in transfected cells; host or cells: human osteosarcoma MG63, transiently co-transfected with pSG5-hPPARg and the reporter pGV-P2-PPRE
T1 sequence (P37231 1-505): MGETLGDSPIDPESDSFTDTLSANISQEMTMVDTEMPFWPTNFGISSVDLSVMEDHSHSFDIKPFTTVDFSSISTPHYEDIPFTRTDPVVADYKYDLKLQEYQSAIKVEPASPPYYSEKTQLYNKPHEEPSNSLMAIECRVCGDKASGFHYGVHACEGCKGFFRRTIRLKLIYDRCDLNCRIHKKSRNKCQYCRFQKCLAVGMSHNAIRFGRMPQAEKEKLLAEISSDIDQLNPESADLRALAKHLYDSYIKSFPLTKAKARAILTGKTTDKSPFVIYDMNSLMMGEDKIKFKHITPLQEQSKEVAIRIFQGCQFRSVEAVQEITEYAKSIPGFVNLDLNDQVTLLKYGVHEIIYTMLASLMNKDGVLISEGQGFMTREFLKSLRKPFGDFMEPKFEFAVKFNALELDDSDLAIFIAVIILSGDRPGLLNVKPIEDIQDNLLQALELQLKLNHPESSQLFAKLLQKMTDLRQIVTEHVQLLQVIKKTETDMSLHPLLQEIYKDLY
Briefly: Inhibitory activity against PPAR γ transcription in the presence of agonist compound A, luciferase reporter. The conditions noted are these: in the presence of 10 nM compound A (agonist); MG63 cells transfected with pSG5-hPPARg and pGV-P2-PPRE; 24 hr. From the text: The primers of the polymerase chain reaction (hereinafter “PCR”) were designed according to the gene sequence of human PPAR γ 2 (GenBANK accession No. D83233). […] For this, 2 kinds of polynucleotides shown in the sequence numbers 1 and 2 in the sequence table described below (hereinafter “S1” and “AS1”, respectively) were used as PCR primers.
In order to determine transcriptional activity via PPAR γ, 2 kinds of polynucleotides represented in sequence numbers 3 and 4 in the sequence table described below (hereinafter “S2” and “AS2”, respectively) were used for construction of the reporter plasmid having PPAR responsive element. The DNA fragment inserted was designed based on the gene sequence in the promoter region of rat acylCo-A oxidase (J. D. Tugwood, EMBO J., 11 (2), pp433-439 (1992)). For insertion of the DNA fragment into the reporter plasmid pGV-P2 (TOYO INK MFG CO., LTD), a NheI site and an XhoI site were added to the S2 and AS2, respectively.
Using cDNA library (Clontech) derived from human adipose tissue as a template, DNA oligomers S1 and AS1 that were synthesized in the procedure 1 as primers and Ex-Taq™ (TAKARA BIO INC.) as a thermostable DNA polymerase-PCR was carried out. […] Each cycle consisted of incubation at 94° C. for 1 min for denaturation of the template, then at 55° C. for 30 sec for annealing of DNA oligomers the PCR primer, and then at 72° C. for 30 sec for extension of the chain. The obtained DNA fragments with approximately 1500 base pairs were digested at the Bgl II sites and were inserted into BamHI sites of pSG5. Thus a human PPAR γ expression plasmid named pSG5-hPPAR g was obtained.
Vector pGV-P2 digestion products was prepared by digestion using the restriction enzymes, NheI and XhoI, and purified by 1.0% agarose-gel electrophoresis. The DNA oligomers, S2 and AS2 obtained in Procedure 2, were mixed together and were incubated in a hot bath at 94° C. for 1 min. After the annealing was partially broken, they were further incubated at 25° C. for 1 hr. Thus double-stranded DNA with annealing of S2 and AS2 was formed. Then, the terminus of the double-stranded DNA with annealing of S2 and AS2 was phosphorylated with DNA polynucleotide kinase (TOYOBO CO., LTD). After that, it was ligated to the pGV-P2 digestion products which were prepared previously using the NheI site and XhoI site. Thus the reporter plasmid pGV-P2-PPRE was obtained.
Using the plasmid obtained by the procedures 3 and 4, transformation of Escherichia coli HB-101 strain was carried out by conventional methods. HB-101 strain having the plasmid was incubated in L-broth medium (containing 10 g of trypton (Difco), 5 g of yeast extract (Difco), 5 g of sodium chloride in 1 L of aqueous solution) containing 100 μg/ml of ampicillin at 37° C. for 17 hrs. Then, each plasmid was purified by the alkaline-SDS method and employed for the gene transfection to mammalian cells. After mixing the pSG5-hPPARg, PGV-P2-PPRE and LipofectAMINE reagent (GIBCO BRL), the human osteosarcoma MG63 was transiently transfected. Then the cells were recovered. The recovered cells were plated on a 96-well plate so as to be 30,000 cells/well and cultured in a CO2 incubator (NAPCO) at 37° C. for 24 hr under the condition of 5% CO2, 95%-RH.
Ten (10) nM of the following compound A (although compound A is described here as a representative compound, the compound is not limited to compound A, if the compound exerts a PPAR r agonistic activity) and various concentrations of the test compound were added to culturing medium of the cells prepared in the Procedure 5.

Regarding `COC(=O)c1nccnc1NC(=O)c1cc([N+](=O)[O-])ccc1Cl` [Example 60, N-(2-Metboxycarbonylpyrazin-3-yl)-(2-chloro-5-nitrophenyl)carboxamide], in experiment [1] (0.1 μM test substance), the “Rate of Uptake (%) of [2-14C] acetic acid” value is listed as 68.8%. Moreover, the “Rate of Differentiation (%)” value in the experiment on Rat white adipocytes is listed as 110.5%.
As for `Cc1ccnc(NC(=O)c2cc([N+](=O)[O-])ccc2Cl)c1[N+](=O)[O-]` [Example 63, N-(4-Methyl-3-nitropyridin-2-yl)-(2-chloro-5-nitrophenyl)carboxamide], the activity at 0.1 µM in experiment [1] (0.1 μM test substance) came to 85.5%; in the experiment with Rat white adipocytes, 120%.
With `O=C(Nc1nc2ccc(F)cc2s1)c1cc([N+](=O)[O-])ccc1Cl` [Example 70, N-(6-Fluorobenzothiazol-2-yl)-(2-chloro-5-nitrophenyl)carboxamide], the activity at 0.1 µM in experiment [1] (3T3-L1, 0.1 μM test substance) amounted to 70.2%; in the experiment on Rat white adipocytes it was 122%.
Take `O=C(Nc1ncccc1[N+](=O)[O-])c1cc([N+](=O)[O-])ccc1Cl` [Example 80, N-(3-Nitropyridin-2-yl)-(2-chloro-5-nitrophenyl)carboxamide]: the activity at 0.1 µM in experiment [1] (0.1 μM test substance) was found to be 83.3%; in the experiment on Rat white adipocytes it was 118%.
With `O=C(Nc1ccc(N2CCOCC2)cc1)c1cc([N+](=O)[O-])ccc1Cl` [Example 113, N-[4-(Morpholin-4-yl)phenyl]-(2-chloro-5-nitrophenyl)carboxamide], the activity at 0.1 µM amounted to 84.6% in experiment [1] (3T3-L1, 0.1 μM test substance) and 111% with Rat white adipocytes.
The like results for `O=C(O)c1cccc(NC(=O)c2cc([N+](=O)[O-])ccc2Cl)c1` [Example 145, 3-(2-Chloro-5-nitrobenzoylamino)benzoic Acid] were, in that order, 87.6% and 141%.
On to `O=C(Nc1cccnc1)c1ccc(NC(=O)c2cc([N+](=O)[O-])ccc2Cl)cc1` [Example 148, N-[4-(Pyridin-3-ylaminocarbonyl)phenyl]-(2-chloro-5-nitrophenyl)carboxamide], for which the activity at 0.1 µM was found to be 75.3% in experiment [1] (3T3-L1, 0.1 μM test substance) and 119% with Rat white adipocytes.
On to `O=C(Nc1ccc(C(=O)N2CCCC2)cc1)c1cc([N+](=O)[O-])ccc1Cl` [Example 160, N-[4-(Pyrrolidinylcarbonyl)phenyl]-(2-chloro-5-nitrophenyl)carboxamide], for which the IC50 – broadly, the midpoint of a concentration-inhibition curve – on human PPAR γ 2 turned out to be 0.11 µM. For the same compound, the activity at 0.1 µM in the experiment on Rat white adipocytes came out at 128%.
`CN1CCN(C(=O)c2ccc(NC(=O)c3cc([N+](=O)[O-])ccc3Cl)cc2)CC1` [Example 164, N-[4-(4-Methylpiperazin-1-ylcarbonyl)phenyl]-(2-chloro-5-nitrophenyl)carboxamide]: the IC50 on human PPAR γ 2 came to 0.0006 µM. Also, the activity at 0.1 µM with Rat white adipocytes amounted to 125%.
Consider “N-(5-Bromo-3-nitropyridin-2-yl)-(−2-chloro-5-nitrophenyl-carboxamide [Example 84]”, for which, in experiment [1] (0.1 μM test substance), the “Rate of Uptake (%) of [2-14C] acetic acid” value was 59.5%. Also, the “Rate of Differentiation (%)” value in the experiment on Rat white adipocytes was 151.4%.
